Reference: article PMC3972617 (Xenobiotica; the fate of foreign compounds in biological …, 2013)

Key:
[1] = system: indomethacin-induced small intestinal injury; assay: Indomethacin-induced enteropathy in mice
[2] = system: primary mouse hepatocytes; assay: LDH release cytotoxicity in cultured primary mouse hepatocytes; assay type: cell-based; details: 24 h exposure
[3] = system: diclofenac (DCF)-induced small intestinal injury; details: Inh-1 given prior to DCF (60 mg/kg, ip); ref LoGuidice et al., 2012; cited from earlier work
[4] = system: diclofenac (DCF)-induced small intestinal injury; assay: Diclofenac-induced enteropathy in mice; assay type: in vivo, male C57BL/6J mice
[5] = system: ketoprofen-induced small intestinal injury; assay: Ketoprofen-induced enteropathy in mice; assay type: in vivo, male C57BL/6J mice; details: Inh-1 10 μg/mouse po bid for 2 days before ketoprofen 100 mg/kg ip; 18 h
[6] = Pharmacokinetic profiling of Inhibitor-1 in mice; assay type: in vivo; details: for AUC(0-t): AUC0–24 h
[7] = single oral dose Inh-1 10 μg/mouse 3 h after DCF 60 mg/kg ip, 18 h after DCF
[8] = C57BL/6J, mouse, plasma, iv, 3 mg/kg, Inh-1 3 mg/kg iv, vehicle pretreatment
[9] = C57BL/6J, mouse, plasma, po, 3 mg/kg, Inh-1 3 mg/kg po, vehicle pretreatment

In the case of `COc1ccc2c(c1)c(CC(=O)O)c(C)n2C(=O)c1ccc(Cl)cc1` [indomethacin, Indomethacin, reference compound], the “small intestinal mucosal ulceration” value ([1]; single dose of indomethacin alone 10 mg/kg ip, 18 h, majority of lesions in quartiles 2 and 3) was “marked mucosal ulceration”.

In the case of `O=C(O)Cc1ccccc1Nc1c(Cl)cccc1Cl` [DCF, diclofenac, reference compound], the “LDH release from the cells” value ([2]; DCF 1000 μM) was “significant increases in LDH release”.

In the case of `CCOc1ccc(NC(=S)N(CCO)Cc2cc3cc(C)cc(C)c3[nH]c2=O)cc1` [Inh-1, 1-((6,8-dimethyl-2-oxo-1,2-dihydroquinolin-3-yl)methyl)-3-(4-ethoxyphenyl)-1-(2-hydroxyethyl)thiourea], the “decrease of total area of indomethacin-induced intestinal injury” value ([1]; Inh-1 10 μg/mouse po bid for 2 days, last dose 1 h before indomethacin 10 mg/kg ip, 18 h post-dose) is given as 89%, the “NBT staining of jejunal mucosa (oxidoreductive stress)” value ([1]; Inh-1/indomethacin co-treated mice, 1 mM nitroblue tetrazolium incubation) is given as “remained unstained” and the “protection against DCF-induced enteropathy, pretreatment” value [3] is given as “complete protection”. The “protection against DCF-induced enteropathy, post-treatment” value ([4]; Inh-1 administered 3-h post-DCF (60 mg/kg, ip)) was “partial protection”, the “average area of total ulcers per mouse versus DCF alone” value [4, 7] was “not significantly different” and the “reduction of average ulcer number per mouse versus DCF controls” value [4, 7] was 71%. The “co-treated mice with an ulcer (one small ulcer)” value [5] was 1/11, the “LDH release versus solvent controls” value ([2]; Inh-1 100 μM alone) was “did not significantly increase LDH release” and the “effect on DCF concentration-toxic response curve (LDH release)” value ([2]; Inh-1 100 μM with DCF 500 or 1000 μM) was “did not alter the concentration-toxic response curve”. For the same molecule, the AUC(0-t) [6, 8] was 4380 ng·h/mL, the Cmax [6, 8] was 7190 ng/mL and the half-life ([6]; C57BL/6J, mouse, plasma, iv, 3 mg/kg, T1/2, Inh-1 3 mg/kg iv, vehicle pretreatment) was 42 min. It also gave an AUC(0-t) [6, 9] of 925 ng·h/mL, a Cmax [6, 9] of 513 ng/mL and a Tmax ([6]; C57BL/6J, mouse, plasma, po, 3 mg/kg, Tmax, Inh-1 3 mg/kg po, vehicle pretreatment) of 30 min. For the same molecule, the “time at which maximal plasma levels were attained” value ([6]; single oral administration of Inh-1 3 mg/kg) was 30 min.
